Measurements reported in patent US20240408194A1, “DNA ORIGAMI SUBUNIT VACCINE FOR PREVENTION OF SARS-CoV-2 VARIANT INFECTION” (priority 2021, published 2024).
Entries after “also recorded” stand apart in the source; their conditions may differ.

Test system: spike and variants
Format: binding, SARS-COV-2

## LCB1
  binding affinity for spike and variants: up to picomolar; also recorded: high affinity
